Assays:
[1] = test system: panel of cancer cell lines and primary cell lines; assay: In vitro cytotoxicity of drug/prodrug pairs against a panel of cell lines; assay type: cell-based
SET2 cells = assay: SET2 viability with prodrug plus recombinant enzyme or enzyme-containing supernatant; assay type: cell-based; conditions: supernatant from CPG2-secreting HEK293t cells; control media did not
Protocol: Recombinant CPG2 protein was initially synthesized, purified (FIGS. 18A and 18B), and incubated with increasing concentrations of prodrug in a glutamate release assay (FIG. 17C). Mass spectrometry was used to determine that the glutamate moiety was released from all of the glutamate prodrugs. The in vitro cytotoxicity of the prodrugs (FIG. 17B) were tested against the myeloid leukemia cell line SET2 using a CellTitre Glo® assay (Promega, Madison, WI).
SET2 cells were exposed to increasing concentrations of AMS (square) or glut-AMS with media alone (− control, triangle) or supernatant from CPG2-secreting HEK293t cells (circle). Cell viability was measured by CellTitre-Glo® luminescence assay.
Thus, antigen-dependent expansion of SEAKER T cells results in increased output of enzyme into the extracellular milieu.
To determine to respective enzyme output of the Beta-lactamase constructs relative to the previous CPG2 constructs, a quantitative sandwich ELISA was used to determine the concentration (ng/mL) of purified recombinant CPG2, and a quantitative nitrocefin assay was used to determine the concentration (ng/mL) of purified recombinant Beta-lactamase (FIG. 25A). Cell viability was measured by CellTitre-Glo® luminescence in the presence of prodrug (glut-AMS or ceph-AMS) and varying concentrations of purified recombinant CPG2 or Beta-lactamase (FIG. 25B).

[2] = test system: human epithelial CACO-2 cells; assay: Cell permeability in CACO-2 cells; assay type: in vitro ADME
[3] = target: T1, endogenous glutamate carboxypeptidase expressed in human prostate cells (Homo sapiens, UniProt Q04609); assay: Cell Titer-Glo viability of LNCap cells with AMS-glut prodrug (specificity for CPG2); assay type: cell-based
T1 construct: the endogenous glutamate carboxypeptidase expressed in human prostate cells; endogenous in cells; host or cells: LNCap cells
Description: This prodrug/drug combination was chosen for further development of the SEAKER systems.

[4] = test system: HEK293T cells expressing CPG2; assay: HEK293T cells expressing CPG2 variants exposed to P-AMS; assay type: cell-based, human
Protocol: (§1) The in vitro cytotoxicity of AMS (structure 1c) and its prodrug variant (structure 1a) was tested against a variety of cell lines using a CellTitre Glo® assay (Promega, Madison, WI). […] Moreover, co-treatment with the prodrug and supernatant from CPG2-transfected HEK293T cells (see Example 3) led to cytotoxicity approaching that of the free drug (50 nM), consistent with CPG2-mediated cleavage of the prodrug to release the active parent drug. […] In contrast, AMS prodrug 1a was not activated by HEK293T cells expressing CPG intracellularly, which likely attributed to poor cell-penetrance of the prodrug due to the free bis-anionic gluatamate moiety.
Expression of CPG2 without a signal peptide (CPG2nosigp) was employed as a control. HEK293t cells stably transfected with CPG2 variants were exposed to P-AMS ([…]) for 48 hours and analyzed by bright field microscopy (FIG. 9A). Cells were exposed to varying concentrations of P-AMS and cell viability was analyzed at 48 hr post treatment (FIG. 9B).

Jurkat (T cell) = assay: CellTitre Glo in vitro cytotoxicity, Jurkat; assay type: cell-based, human
Raji = assay: Cell viability, Raji; assay type: cell-based, human
recombinant CPG2 = target: T2, recombinant CPG2 (Pseudomonas sp., UniProt P06621, N222Q/N264Q/N272Q); assay: Glutamate release assay (Amplex Red) with recombinant CPG2; assay type: biochemical; conditions: high concentrations (~10 μM), 37° C.
T2 construct: 6xHis (pET151 Directional TOPO leader) (N); made in house; host or cells: E. coli BL21 star
Protocol: FIG. 4 provides exemplary data showing activation of P-AMS (see FIG. 2) by recombinant CPG2 expressed and purified from E. coli. (A) Human Jurkat T cells were incubated with or without P-AMS in the presence of increasing concentration of purified CPG2. Cell viability was measured at 48 hours by CellTitre-Glo luminescence. (B) Recombinant CPG2 was exposed to various concentrations of glutamated AMS prodrug. Following incubation at 37° C. (0.5, 1, 2, and 4 hr.), the reaction was combined with Amplex® Red (converts free glutamate to a fluorescent species) and fluorescent emission was analyzed using a fluorescence multiwell plate scanner.
The CPG2-pET151 vector was transformed into BL21 star E. coli cells and induced with IPTG. Bacteria were homogenized in a French Press and purified by affinity chromatography over Ni++ beads using standard protocols. Imidazole was exchanged via PBS dialysis and protein was purified via desalting spin columns. The expressed and purified CPG2 was assayed to confirm that the active enzyme was a potent converter of glutamated prodrugs. […] Pro-AMS was activated by recombinant CPG2 in vitro. Human Jurkat T cells were incubated with or without P-AMS in the presence of increasing concentration of purified CPG2. Cell viability of the Jurkat cells was measured at 48 hours by CellTitre-Glo® luminescence. […]

[5] = test system: myeloid leukemia cell line SET2; assay: CellTitre Glo in vitro cytotoxicity, SET2; assay type: cell-based
[6] = mouse, in vivo
[7] = test system: SKOV-3 human ovarian cancer cell line; assay: Cell viability, Skov-3; assay type: cell-based
primary T-cells = assay: CellTitre Glo in vitro cytotoxicity, primary T cells; assay type: cell-based, human
Nalm6 = assay: Cell viability, Nalm6; assay type: cell-based
HEK293T (kidney) = assay: CellTitre Glo in vitro cytotoxicity, HEK293T; assay type: cell-based, human
Jurkat T cells = assay: Jurkat viability with prodrug plus supernatant from CPG2-secreting HEK293T cells; assay type: cell-based, human; conditions: increasing prodrug, 48 hours, supernatant from CPG2-secreting HEK293T cells
Protocol: as §1
Jurkat T cells were exposed to increasing concentrations of AMS (circle) or Pro-AMS with media alone (triangle) or supernatant from CPG2-secreting HEK293T cells (square). Cell viability was measured at 48 hours by CellTitre-Glo® luminescence assay.
Jurkat T cells were exposed to increasing concentrations of ZD2767P with media alone (triangle) or supernatant from CPG2-secreting HEK293T cells (square). Cell viability was measured at 48 hours by CellTitre-Glo® luminescence assay.

[8] = test system: lung adenocarcinoma cells (HCC827); assay: Co-culture of GFP+ 293tCPGTM cells with HCC827 plus erlotinib prodrug; assay type: cell-based; conditions: 293tCPGTM:HCC827 various ratios, 120 hr
Protocol: FIG. 15 provides exemplary data showing the pro-drug activity of 293T cells expressing transmembrane CPG2. GFP+293t^CPGTM cells were co-cultured with lung adenocarcinoma cells (HCC827) at various ratios (293t^CPGTM:HCC827) and the erlotinib prodrug (p-erlotinib) was added. (A) Cells were analyzed at 120 hour by flow cytometry and % GFP was calculated. (B) Ratio of 293t^CPGTM cells to HCC827 cells was calculated for each cell ratio.
The retroviral constructs encoding the anti-CD19 CAR and transmembrane CPG2 enzyme described above were transduced into 293T cells to test the conversion activity of transmembrane CPG2 for an Erlotinib prodrug. GFP+293t^CPGTM cells were co-cultured with lung adenocarcinoma cells (HCC827) at various ratios (293t^CPGTM:HCC827) and the erlotinib prodrug (p-erlotinib) was added. Cells were analyzed at 120 hr. by flow cytometry (FIG. 15A) and the percentage of GFP cells and the ratio of 293t^CPGTM cells to HCC827 cells was calculated for each cell ratio (FIG. 15B).

[9] = test system: non-small cell lung carcinoma cell line PC9; assay: CellTitre-Glo viability, PC9; assay type: cell-based, human
Protocol: FIG. 14 provides exemplary data showing that Human T cells, but not cancer cells, are resistant to Erlotinib. (A) Human Jurkat T cells (red circle) and human non-small cell lung carcinoma cell lines PC9 (black square) and HCC827 (blue triangle) were treated with increasing concentrations of the receptor tyrosine kinase inhibitor Erlotinib. […] Cell viability was measured at 48 hours by CellTitre-Glo® luminescence.
FIG. 14 provides exemplary data showing that Human T cells, but not cancer cells, are resistant to Erlotinib. Human Jurkat T cells, primary T cells and human non-small cell lung carcinoma cell lines PC9 and HCC827 were treated with increasing concentrations of the receptor tyrosine kinase inhibitor Erlotinib. […] PC9 cells were incubated in the presence of Erlotinib, P-Erlotinib, or P-Erlotinib in the presence of purified CPG2. Cell viability was measured at 48 hours by CellTitre-Glo® luminescence.

Which results are given for `NS(=O)(=O)OC[C@H]1O[C@@H](n2cnc3c(NC(=O)N[C@@H](CCC(=O)O)C(=O)O)ncnc32)[C@H](O)[C@@H]1O` [P-AMS, ((9-((2R,3R,4S,5R)-3,4-dihydroxy-5-((sulfamoyloxy)methyl)tetrahydrofuran-2-yl)-9H-purin-6-yl)carbamoyl)-L-glutamic acid]?
selective indices ([1]; all cell types tested): > 100; IC50 ([1]; prodrug alone, cell lines tested): > 1000 nM; SI selectivity index ([1]; prodrug vs free drug, up to): > 56; SET2 cell viability with prodrug and CPG2 supernatant (SET2 cells): significant decrease in cell viability; cell permeability [2]: no cell permeability; stability to endogenous glutamate carboxypeptidase [3]: remained stable; activation by cells expressing CPG intracellularly ([4]; HEK293T cells expressing CPG intracellularly): not activated; cell death of HEK293T cells stably expressing secreted or transmembrane CPG2 ([4]; P-AMS, 48 hr, CPG2nosigp control did not): significant cell death; IC50 (Jurkat (T cell); Homo sapiens, Jurkat, read-out: IC50 (cell selectivity data)): > 1250 nM; Selective Index (Jurkat (T cell); Jurkat (T cell), prodrug vs AMS): >162.3; IC50 (Raji; Homo sapiens, read-out: IC50 (cell selectivity data)): > 3000 nM; Selective Index (Raji; prodrug vs AMS): >170.5; time in which the majority of the prodrug is converted (recombinant CPG2): ≤ 1 h; IC50 ([5]; Homo sapiens, SET-2, read-out: IC50 (cell selectivity data)): > 3000 nM; Selective Index ([5]; Set2, prodrug vs AMS): >87.2; toxicity [6]: non-toxic; IC50 ([7]; Homo sapiens, SK-OV-3, read-out: IC50 (cell selectivity data)): > 5000 nM; Selective Index ([7]; Skov-3, prodrug vs AMS): >14.3; IC50 (primary T-cells; Homo sapiens, T-cell, read-out: IC50 (cell selectivity data)): > 3000 nM; Selective Index (primary T-cells; Human T cell, prodrug vs AMS): >13.2; IC50 (Nalm6; Homo sapiens, NALM-6, read-out: IC50 (cell selectivity data)): > 3000 nM; Selective Index (Nalm6; Nalm6, prodrug vs AMS): >81.3; Selective Index (HEK293T (kidney); HEK293t, prodrug vs AMS): >7.5; IC50 (HEK293T (kidney); Homo sapiens, HEK-293T, read-out: IC50 (cell selectivity data)): > 5000 nM; cell viability with prodrug and CPG2 supernatant (Jurkat T cells): significant decrease in cell viability

Which “killing in co-culture with transmembrane CPG2 cells” value [8] does the source give for `C#Cc1cccc(N(Cc2ccc(NC(=O)N[C@@H](CCC(=O)O)C(=O)O)cc2)c2ncnc3cc(OCCOC)c(OCCOC)cc23)c1` [P-Erlotinib, ((4-(((6,7-bis(2-methoxyethoxy)quinazolin-4-yl)(3-ethynylphenyl)amino)methyl)phenyl)carbamoyl)-L-glutamic acid] here?
Its value is “kills the target cancer cell, but not the cell secreting the enzyme”.

And the “toxicity in PC9 cells” value ([9]; 1 μM, without CPG2, 48 hours)?
Its value is “no toxicity”.

What about the “activity of cleaved prodrug in PC9 cells” value ([9]; in the presence of purified CPG2, 48 hours) of the same compound?
The value was “comparable activity to the active drug”.
